US20140249147A1, “Substituted Bicyclic Aza-Heterocycles and Analogues as Sirtuin Modulators” (GlaxoSmithKline, LLC, priority 2011, published 2014)

Assays:
SIRT1 [1] = molecular target: T1, SIRT1 (Homo sapiens, UniProt Q96EB6); assay: TAMRA based mass spectrometry assay of SIRT1 activation; format: biochemical; settings: TAMRA peptide substrate; for Emax: 25 min, percent maximum fold activation relative to control (100%), read-out: TAMRA % Fold Act; for TAMRA EC1.5 (μM): concentration giving 150% activation of SIRT1
T1 sequence (Q96EB6 1-747): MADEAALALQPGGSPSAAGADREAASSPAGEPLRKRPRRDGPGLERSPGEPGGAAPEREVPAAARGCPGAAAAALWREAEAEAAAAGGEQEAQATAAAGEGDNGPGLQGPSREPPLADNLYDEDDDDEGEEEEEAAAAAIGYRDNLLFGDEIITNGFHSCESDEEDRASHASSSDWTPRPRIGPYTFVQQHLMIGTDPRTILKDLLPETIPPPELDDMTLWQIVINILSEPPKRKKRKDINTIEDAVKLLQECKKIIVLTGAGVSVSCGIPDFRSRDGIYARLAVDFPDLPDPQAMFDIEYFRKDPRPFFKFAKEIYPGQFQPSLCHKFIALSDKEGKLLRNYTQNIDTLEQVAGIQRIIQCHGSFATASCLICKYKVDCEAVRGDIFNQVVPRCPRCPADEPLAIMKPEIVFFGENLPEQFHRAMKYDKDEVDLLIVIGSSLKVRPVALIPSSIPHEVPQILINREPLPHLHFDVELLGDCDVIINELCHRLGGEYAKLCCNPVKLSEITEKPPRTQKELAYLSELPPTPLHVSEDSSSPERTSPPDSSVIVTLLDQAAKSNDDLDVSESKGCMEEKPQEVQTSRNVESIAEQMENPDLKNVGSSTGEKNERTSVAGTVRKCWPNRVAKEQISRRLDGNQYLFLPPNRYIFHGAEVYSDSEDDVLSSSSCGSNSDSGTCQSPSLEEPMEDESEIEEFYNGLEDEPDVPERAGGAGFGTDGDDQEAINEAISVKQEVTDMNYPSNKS
From the text: (§1) Mass spectrometry based assays were used to identify modulators of SIRT1 activity. The TAMRA based assay utilized a peptide having 20 amino acid residues as follows: Ac-EE-K(biotin)-GQSTSSHSK(Ac)NleSTEG-K(5TMR)-EE-NH2 (SEQ ID NO: 1), wherein K(Ac) is an acetylated lysine residue and Nle is a norleucine. The peptide was labeled with the fluorophore 5TMR (excitation 540 nm/emission 580 nm) at the C-terminus. The sequence of the peptide substrate was based on p53 with several modifications. In addition, the methionine residue naturally present in the sequence was replaced with the norleucine because the methionine may be susceptible to oxidation during synthesis and purification. The Trp based assay utilized a peptide having an amino acid residues as follows: Ac—R—H—K—K(Ac)—W—NH2 (SEQ ID NO: 2).
The TAMRA based mass spectrometry assay was conducted as follows: 0.5 μM peptide substrate and 120 μM βNAD^+ was incubated with 10 nM SIRT1 for 25 minutes at 25° C. in a reaction buffer (50 mM Tris-acetate pH 8, 137 mM NaCl, 2.7 mM KCl, 1 mM MgCl2, 5 mM DTT, 0.05% BSA). The SIRT1 protein was obtained by cloning the SirT1 gene into a T7-promoter containing vector, which was then transformed and expressed in BL21(DE3) bacterial cells. Test compound was added at varying concentrations to this reaction mixture and the resulting reactions were monitored. After the 25 minute incubation with SIRT1, 10 μL of 10% formic acid was added to stop the reaction. The resulting reactions were sealed and frozen for later mass spec analysis. Determination of the amount of deacetylated substrate peptide formed (or, alternatively, the amount of O-acetyl-ADP-ribose (OAADPR) generated) by the sirtuin-mediated NAD-dependent deacetylation reaction allowed for the precise measurement of relative SIRT1 activity in the presence of varying concentrations of the test compound versus control reactions lacking the test compound.
(§2) A control for inhibition of sirtuin activity was conducted by adding 1 μL of 500 mM nicotinamide as a negative control at the start of the reaction (e.g., permits determination of maximum sirtuin inhibition). A control for activation of sirtuin activity was conducted using 10 nM of sirtuin protein, with 1 μL of DMSO in place of compound, to determine the amount of deacetylation of the substrate at a given time point within the linear range of the assay. This time point was the same as that used for test compounds and, within the linear range, the endpoint represents a change in velocity. For the above assay, SIRT1 protein was expressed and purified as follows. The SirT1 gene was cloned into a T7-promoter containing vector and transformed into BL21(DE3). The protein was expressed by induction with 1 mM IPTG as an N-terminal His-tag fusion protein at 18° C. overnight and harvested at 30,000×g. Cells were lysed with lysozyme in lysis buffer (50 mM Tris-HCl, 2 mM Tris[2-carboxyethyl]phosphine (TCEP), 10 μM ZnCl2, 200 mM NaCl) and further treated with sonication for 10 min for complete lysis. The protein was purified over a Ni-NTA column (Amersham) and fractions containing pure protein were pooled, concentrated and run over a sizing column (Sephadex S200 26/60 global). The peak containing soluble protein was collected and run on an Ion-exchange column (MonoQ). Gradient elution (200 mM-500 mM NaCl) yielded pure protein. This protein was concentrated and dialyzed against dialysis buffer (20 mM Tris-HCl, 2 mM TCEP) overnight. The protein was aliquoted and frozen at −80° C. until further use.
Sirtuin-modulating compounds of Formula (I) that activated SIRT1 were identified using the assay described above and are shown below in Table 1. The EC1.5 values represent the concentration of test compounds that result in 150% activation of SIRT1. The EC1.5 values for the activating compounds of Formula (I) are represented by A (EC1.5<1 μM), B (EC1.5 1-25 μM), C (EC1.5>25 μM). […]

SIRT1 [2] = molecular target: T1, SIRT1; assay: Trp mass spectrometry assay of SIRT1 activation; format: biochemical; settings: Trp peptide substrate
From the text: as §1
The Trp mass spectrometry assay was conducted as follows. 0.5 μM peptide substrate and 120 μM βNAD^+ were incubated with 10 nM SIRT1 for 25 minutes at 25° C. in a reaction buffer (50 mM HEPES pH 7.5, […], 1 mM DTT, 0.05% BSA). The SIRT1 protein was obtained by cloning the SirT 1 gene into a T7-promoter containing vector, which was then expressed in BL21(DE3) bacterial cells and purified as described in further detail below. Test compound was added at varying concentrations to this reaction mixture and the resulting reactions were monitored. After the 25 minute incubation with SIRT1, 10 μL of 10% formic acid was added to stop the reaction. The resulting reactions were sealed and frozen for later mass spec analysis. The relative SIRT1 activity was then determined by measuring the amount of O-acetyl-ADP-ribose (OAADPR) formed (or, alternatively, the amount of deacetylated Trp peptide generated) by the NAD-dependent sirtuin deacetylation reaction in the presence of varying concentrations of the test compound versus control reactions lacking the test compound. The degree to which the test agent activated deacetylation by SIRT1 was expressed as EC1.5 (i.e., the concentration of compound required to increase SIRT1 activity by 50% over the control lacking test compound), and Percent Maximum Activation (i.e., the maximum activity relative to control (100%) obtained for the test compound).
as §2
Sirtuin-modulating compounds of Formula (I) that activated SIRT1 were identified using the assay described above and are shown below in Table 1. […]

O=C(Nc1ccccn1)c1ccc2nnc(-c3cccc(OC(F)(F)F)c3)n2n1 [Compound 2]
Emax (SIRT1 [1]): < 350% | TAMRA EC1.5 (μM) (SIRT1 [1]): C (EC1.5>25 μM)

O=C(Nc1ccccn1)c1ccc2nnc(-c3cccc(C(F)(F)F)c3)n2n1 [Compound 3]
TAMRA EC1.5 (μM) (SIRT1 [1]): C (EC1.5>25 μM)

O=C(Nc1cccc(C(F)(F)F)n1)c1ccc2nnc(-c3cccc(F)c3)n2n1 [Compound 7]
Emax (SIRT1 [1]): < 350%

O=C(Nc1cccc(C(F)(F)F)n1)c1ccc2ncc(-c3ccccc3F)n2n1 [Compound 9]
Emax (SIRT1 [1]): < 350% | TAMRA EC1.5 (μM) (SIRT1 [1]): B (EC1.5 1-25 μM)

O=C(Nc1ccc(F)cn1)c1ccc2ncc(-c3cccc(C(F)(F)F)c3)n2n1 [Compound 11]
Emax (SIRT1 [1]): < 350% | TAMRA EC1.5 (μM) (SIRT1 [1]): B (EC1.5 1-25 μM)

O=C(Nc1ccnc(C(F)(F)F)c1)c1ccc2ncc(-c3ccccc3F)n2n1 [Compound 12]
Emax (SIRT1 [1]): < 350% | TAMRA EC1.5 (μM) (SIRT1 [1]): B (EC1.5 1-25 μM)

O=C(Nc1ccc2ncc(-c3ccccc3F)n2n1)c1cnccn1 [Compound 13]
Emax (SIRT1 [1]): < 350% | TAMRA EC1.5 (μM) (SIRT1 [1]): C (EC1.5>25 μM)

O=C(Nc1ccc2ncc(-c3cccc(F)c3)n2n1)c1nccs1 [Compound 17]
Emax (SIRT1 [1]): < 350% | TAMRA EC1.5 (μM) (SIRT1 [1]): B (EC1.5 1-25 μM)

O=C(Nc1ccc2ncc(-c3cccc(F)c3)n2n1)c1cnccn1 [Compound 20]
Emax (SIRT1 [1]): < 350% | TAMRA EC1.5 (μM) (SIRT1 [1]): B (EC1.5 1-25 μM)

O=C(Nc1ccc2ncc(-c3ccccc3Cl)n2n1)c1nccs1 [Compound 24]
Emax (SIRT1 [1]): < 350% | TAMRA EC1.5 (μM) (SIRT1 [1]): B (EC1.5 1-25 μM)

O=C(Nc1ccc2ncc(-c3ccccc3F)n2n1)c1ncccn1 [Compound 25]
Emax (SIRT1 [1]): < 350% | TAMRA EC1.5 (μM) (SIRT1 [1]): B (EC1.5 1-25 μM)

O=C(Nc1ccc2ncc(-c3cccc(Cl)c3)n2n1)c1nccs1 [Compound 27]
Emax (SIRT1 [1]): < 350% | TAMRA EC1.5 (μM) (SIRT1 [1]): B (EC1.5 1-25 μM)

O=C(Nc1ccc2ncc(-c3cccc(F)c3)n2n1)c1ccccn1 [Compound 28]
Emax (SIRT1 [1]): < 350% | TAMRA EC1.5 (μM) (SIRT1 [1]): B (EC1.5 1-25 μM)

O=C(Nc1ccnc(C(F)(F)F)c1)c1ccc2ncc(-c3ccccc3Cl)n2n1 [Compound 29]
Emax (SIRT1 [1]): < 350% | TAMRA EC1.5 (μM) (SIRT1 [1]): B (EC1.5 1-25 μM)

O=C(Nc1ccc2ncc(-c3cccc(Cl)c3)n2n1)c1ccccn1 [Compound 30]
Emax (SIRT1 [1]): < 350% | TAMRA EC1.5 (μM) (SIRT1 [1]): B (EC1.5 1-25 μM)

O=C(Nc1ccc2ncc(-c3cccc(C(F)(F)F)c3)n2n1)c1ccccn1 [Compound 31]
Emax (SIRT1 [1]): < 350% | TAMRA EC1.5 (μM) (SIRT1 [1]): B (EC1.5 1-25 μM)

O=C(Nc1cccc(N2CCOCC2)n1)c1ccc2ncc(-c3ccccc3F)n2n1 [Compound 32]
Emax (SIRT1 [1]): < 350% | TAMRA EC1.5 (μM) (SIRT1 [1]): C (EC1.5>25 μM)

O=C(Nc1ccc2ncc(-c3ccccc3Cl)n2n1)c1ncccn1 [Compound 33]
Emax (SIRT1 [1]): ≥ 350% | TAMRA EC1.5 (μM) (SIRT1 [1]): A (EC1.5<1 μM)

O=C(Nc1ccc2ncc(-c3cccc(Cl)c3)n2n1)c1cnccn1 [Compound 34]
Emax (SIRT1 [1]): < 350% | TAMRA EC1.5 (μM) (SIRT1 [1]): A (EC1.5<1 μM)

Cn1ccc(C(=O)Nc2ccc3ncc(-c4cccc(Cl)c4)n3n2)n1 [Compound 35]
Emax (SIRT1 [1]): < 350% | TAMRA EC1.5 (μM) (SIRT1 [1]): A (EC1.5<1 μM)

Cn1ccc(C(=O)Nc2ccc3ncc(-c4ccccc4F)n3n2)n1 [Compound 36]
Emax (SIRT1 [1]): < 350% | TAMRA EC1.5 (μM) (SIRT1 [1]): A (EC1.5<1 μM)

O=C(Nc1ccc2ncc(-c3cccc(Cl)c3)n2n1)c1ncccn1 [Compound 37]
Emax (SIRT1 [1]): < 350% | TAMRA EC1.5 (μM) (SIRT1 [1]): B (EC1.5 1-25 μM)

O=C(Nc1ccc2ncc(-c3cccc(C(F)(F)F)c3)n2n1)c1ncccn1 [Compound 39]
TYP EC1.5 (μM) (SIRT1 [2]; concentration giving 150% activation of SIRT1): C (EC1.5>25 μM) | TYP % Fold Act (SIRT1 [2]; percent maximum fold activation relative to control (100%)): B (Fold Activation <350%)

Cn1ccc(C(=O)Nc2ccc3ncc(-c4cccc(C(F)(F)F)c4)n3n2)n1 [Compound 40]
Emax (SIRT1 [1]): < 350% | TAMRA EC1.5 (μM) (SIRT1 [1]): C (EC1.5>25 μM)

O=C(Nc1ccc2ncc(-c3ccccc3Cl)n2n1)c1ccccn1 [Compound 41]
Emax (SIRT1 [1]): < 350% | TAMRA EC1.5 (μM) (SIRT1 [1]): C (EC1.5>25 μM)

CS(=O)(=O)c1cccc(-c2nnc3ccc(C(=O)Nc4nccs4)nn23)c1 [Compound 42]
Emax (SIRT1 [1]): < 350% | TAMRA EC1.5 (μM) (SIRT1 [1]): C (EC1.5>25 μM)

Cn1ccc(C(=O)Nc2ccc3ncc(-c4cccc(F)c4)n3n2)n1 [Compound 43]
Emax (SIRT1 [1]): < 350% | TAMRA EC1.5 (μM) (SIRT1 [1]): C (EC1.5>25 μM)

Cn1ccc(C(=O)Nc2ccc3ncc(-c4ccccc4Cl)n3n2)n1 [Compound 45]
Emax (SIRT1 [1]): < 350% | TAMRA EC1.5 (μM) (SIRT1 [1]): C (EC1.5>25 μM)

O=C(Nc1cccc(N2CCOCC2)n1)c1ccc2ncc(-c3cccc(Cl)c3)n2n1 [Compound 46]
Emax (SIRT1 [1]): < 350% | TAMRA EC1.5 (μM) (SIRT1 [1]): B (EC1.5 1-25 μM)

O=C(Nc1ccnc(C2CCOCC2)c1)c1ccc2ncc(-c3cccc(C(F)(F)F)c3)n2n1 [Compound 47]
Emax (SIRT1 [1]): ≥ 350% | TAMRA EC1.5 (μM) (SIRT1 [1]): A (EC1.5<1 μM)

O=C(Nc1nccs1)c1ccc2nnc(-c3cccc(C(F)(F)F)c3)n2n1 [Compound 49]
Emax (SIRT1 [1]): < 350% | TAMRA EC1.5 (μM) (SIRT1 [1]): C (EC1.5>25 μM)

O=C(Nc1ccnc(C(F)(F)F)c1)c1ccc2ncc(-c3cccc(F)c3)n2n1 [Compound 50]
Emax (SIRT1 [1]): < 350% | TAMRA EC1.5 (μM) (SIRT1 [1]): C (EC1.5>25 μM)
